Test results: PMC6753678, “Fueling Open Innovation for Malaria Transmission-Blocking Drugs: Hundreds of Molecules Targeting Early Parasite Mosquito Stages” (Frontiers in Microbiology, 2019)
Where two headings read alike, the source gives them in different places.

Key:
[1] = test system: 3D7-strain P. falciparum asexual parasites; experiment: P. falciparum asexual growth inhibition assay (Pf GIA); format: cell-based, Plasmodium falciparum; settings: dose response confirmation; read-out: Pf asexual growth inhibition assays IC50
How it was run: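 0.25% parasitemia, 2% Hct, RPMI/HEPES/hypoxanthine/5% Albumax; compound dose response, 72 h, 37°C, 5% CO2, 5% O2, 90% N2. Freeze-thaw, then LDH assay, A650. % inhibition vs chloroquine (50 μM)/DMSO, mean of 3 independent runs.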

HepG2 cells = experiment: HepG2 cytotoxicity assay; settings: for Pb ODA (this manuscript) HepG2 cytoxicity: HepG2 cytotoxicity listed with the Pb ODA data set (this manuscript); for IC50: read-out: HepG2 cytotoxicity assay IC50, dose response confirmation; for Unified cytotox: HepG2 values of the three screens unified
How it was run: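 HepG2 cells, 2,500 per well in MEM with 10% FBS and 1% NEAA, exposed to compounds for 48 h at 37°C, 5% CO2. Viability read by fluorescence; percent inhibition relative to 50 μM doxorubicin and DMSO controls.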

[2] = test system: P. berghei ookinete development; settings: for % inhibition, Replicate A / % inhibition, Replicate B: primary screen at 1 μM
[3] = read-out: Pb ODA (this manuscript) IC50, P. berghei ookinete development assay, this manuscript
[4] = read-out: Pb Ookinete development assay IC50, dose response confirmation
[5] = read-out: Pb ODA IC50, this manuscript

| Structure (SMILES) | IC50 [1] | Pb ODA (this manuscript) HepG2 cytoxicity (HepG2 cells) | IC50 (HepG2 cells) | Is compound selective in assay? Pb ODA active? [2] | % inhibition, Replicate A [2] | % inhibition, Replicate B [2] | IC50 [2, 3] | IC50 [2, 4] | Unified cytotox (HepG2 cells) | Is compound selective in assay? Pb ODA active? ([2]; 1: YES, 0: NO) | IC50 [2, 5] | HepG2 cytoxicity (Pb ODA, this manuscript) (HepG2 cells) |
| --- | --- | --- | --- | --- | --- | --- | --- | --- | --- | --- | --- | --- |
| COc1cc(F)c2ncc(Cl)c(CCN3CCC(NCc4ccc5c(c4)NC(=O)CO5)CC3)c2c1.Cl [TCMDC-135623] | 339 nM | 12.30 µM | 12300 nM | 1 (key: 1: YES; 0: NO) | 70.96% | 86.73% | 540 nM | 541 nM | – | – | – | – |
| COc1ccc2ncc(F)c(CCN3C4CCC3CC(NCc3ccc5c(c3)OCCO5)C4)c2n1.Cl (stereo not shown) [TCMDC-135638] | 995 nM | 39.81 µM | 39800 nM | 0 (key: 1: YES; 0: NO) | 30.43% | 54.56% | 4240 nM | 4240 nM | – | – | – | – |
| COc1ccc2ncc(C#N)c(CCN3CCC(NCc4ccc5c(c4)NC(=O)CO5)CC3)c2c1.Cl [TCMDC-135645] | 553 nM | 38.90 µM | 38900 nM | 1 (key: 1: YES; 0: NO) | 122.09% | 92.16% | 460 nM | 457 nM | – | – | – | – |
| COc1ccc(CCc2ccc(-c3c(C)[nH]c(C)c(Cl)c3=O)cc2)cc1 [TCMDC-135654] | 20 nM | – | 100000 nM | – | 86.19% | 104.99% | – | 143 nM | 100.00 µM | 1 (1: YES) | 140 nM | – |
| COc1ccc(C#Cc2ccc(-c3c(C)[nH]c(C)c(Cl)c3=O)cc2)cc1 [TCMDC-135655] | 73 nM | – | 100000 nM | – | 78.44% | 70.65% | – | 1160 nM | 100.00 µM | 1 (1: YES) | 1160 nM | – |
| Cc1[nH]c(C)c(-c2ccc(OCc3cccc(C(F)(F)F)c3)nc2)c(=O)c1Br [TCMDC-135656] | 41 nM | – | 8610 nM | – | 92.61% | 102.80% | – | 106 nM | 8.61 µM | 1 (1: YES) | 110 nM | 8.61 µM |
| Cc1[nH]c(C)c(-c2ccc(OCc3ccc(F)cc3)nc2)c(=O)c1Br [TCMDC-135657] | 173 nM | – | 100000 nM | – | 61.60% | 80.51% | – | 597 nM | 100.00 µM | 1 (1: YES) | 600 nM | – |
| Cc1[nH]c(C)c(-c2ccc(OCc3cc(F)cc(F)c3)nc2)c(=O)c1Cl [TCMDC-135676] | 36 nM | – | 7850 nM | – | 78.17% | 102.44% | – | 2070 nM | 7.85 µM | 0 (0: NO) | 2070 nM | 7.85 µM |
| Cc1[nH]c(C)c(-c2ccc(-c3ccc(OC(F)(F)F)cc3)nc2)c(=O)c1Cl [TCMDC-135677] | 397 nM | – | 23700 nM | – | 103.64% | 93.64% | – | 265 nM | 23.71 µM | 1 (1: YES) | 270 nM | 23.71 µM |
| Cc1[nH]c(C)c(-c2ccc(CCc3ccc(N)cc3)cc2)c(=O)c1Cl [TCMDC-135678] | 279 nM | – | 100000 nM | – | 46.90% | 71.02% | – | 1090 nM | 100.00 µM | 1 (1: YES) | 1090 nM | – |
| Cc1[nH]c(C)c(-c2ccc(OCc3cc(F)cc(F)c3)nc2)c(=O)c1Br [TCMDC-135683] | 188 nM | – | 25400 nM | – | 82.45% | 85.99% | – | 409 nM | 25.41 µM | 1 (1: YES) | 410 nM | 25.41 µM |
| COc1nc2c(CCN3CCC(NCc4ccc5c(n4)NC(=O)CO5)CC3)c(Cl)cnc2cc1F.Cl [TCMDC-135766] | 2740 nM | 42.66 µM | 42700 nM | 1 (key: 1: YES; 0: NO) | 65.11% | 58.19% | 3720 nM | 3720 nM | – | – | – | – |
| COc1nc2c(CCN3CCC(NCc4ccc5c(c4)NCCO5)CC3)c(Cl)cnc2cc1F.Cl [TCMDC-135768] | 584 nM | 14.45 µM | 14400 nM | 0 (key: 1: YES; 0: NO) | 14.93% | 54.54% | 3540 nM | 3540 nM | – | – | – | – |
| Cc1[nH]c(C)c([N+](=O)[O-])c(=O)c1-c1ccc(Oc2ccccc2)cc1 [TCMDC-135779] | 809 nM | 100.00 µM | 100000 nM | 1 (key: 1: YES; 0: NO) | 85.12% | 87.09% | – | 540 nM | – | – | – | – |
| Cc1[nH]c(C)c(-c2ccc(/C=C/c3ccccn3)cc2)c(=O)c1Cl [TCMDC-135787] | 1260 nM | – | 100000 nM | – | 50.60% | 51.03% | – | 1050 nM | 100.00 µM | 1 (1: YES) | – | – |
| COc1ccc(CCc2ccc(-c3c(C)[nH]c(C)c(Cl)c3=O)cc2)cc1OC [TCMDC-135789] | 119 nM | – | 100000 nM | – | 97.42% | 111.57% | – | 277 nM | 100.00 µM | 1 (1: YES) | 280 nM | – |
| Cc1[nH]c(C)c(-c2ccc(OCCCc3ccccn3)cc2)c(=O)c1Br.Cl [TCMDC-135795] | 6.55 nM | 0.17 µM | 170 nM | 0 (key: 1: YES; 0: NO) | 72.29% | 89.65% | 590 nM | 594 nM | – | – | – | – |
| Cc1[nH]c(C)c(-c2ccc(OCc3ccccc3C(F)(F)F)nc2)c(=O)c1Br [TCMDC-135796] | 36 nM | – | 3020 nM | – | 84.05% | 98.42% | – | 42 nM | 3.02 µM | 1 (1: YES) | 40 nM | 3.02 µM |
| COc1nc2c(CCN3CC[C@H](NCc4ccc5c(c4)NC(=O)CO5)[C@H](O)C3)c(Cl)cnc2cc1F.Cl [TCMDC-135805] | 1320 nM | 12.02 µM | 12000 nM | 1 (key: 1: YES; 0: NO) | 46.55% | 63.06% | – | 770 nM | – | – | – | – |
| Cc1[nH]c(C)c(-c2ccc(OCc3cc(C(F)(F)F)cc(C(F)(F)F)c3)nc2)c(=O)c1Cl [TCMDC-135814] | 185 nM | – | 1660 nM | – | 68.02% | 98.05% | – | 161 nM | 1.66 µM | 1 (1: YES) | 160 nM | 1.66 µM |
| Cc1[nH]c(C)c(-c2ccc(OCc3cc(C(F)(F)F)cc(C(F)(F)F)c3)nc2)c(=O)c1Br [TCMDC-135815] | 279 nM | – | 710 nM | – | 74.97% | 105.72% | – | 122 nM | 0.71 µM | 0 (0: NO) | 120 nM | 0.71 µM |
| CCCCCCCc1ccc(-c2c(C)[nH]c(C)c(Cl)c2=O)cn1 [TCMDC-135816] | 355 nM | – | 30900 nM | – | 56.53% | 81.98% | – | 581 nM | 30.90 µM | 1 (1: YES) | 580 nM | 30.90 µM |
| Cc1[nH]c(C)c(-c2ccc(-c3ccccc3C(F)(F)F)nc2)c(=O)c1Br [TCMDC-135881] | 191 nM | – | 100000 nM | – | 87.53% | 97.69% | – | 973 nM | 100.00 µM | 1 (1: YES) | 970 nM | – |
| Cc1[nH]c(C)c(-c2ccc(-c3cccc(C(F)(F)F)c3)nc2)c(=O)c1Br [TCMDC-135911] | 45 nM | – | 100000 nM | – | 105.47% | 112.19% | – | 400 nM | 100.00 µM | 1 (1: YES) | – | – |
